Values quoted from earlier work as cited in patent US20150079169A1 (POZEN INC., priority 2011, published 2015).

How the values were obtained:
[1] = for major cardiovascular events (ischaemic stroke, MI, or vascular death), average rate per year: 19,185 people with history of MI, stroke, or peripheral arterial disease, clopidogrel 75 mg daily versus aspirin 325 mg daily
[2] = clopidogrel therapy
[3] = oral dose of 14C-labeled clopidogrel in humans, five days after dosing
[4] = repeated oral doses of 75 mg clopidogrel (base)

Structure (SMILES): CC(=O)Oc1ccccc1C(=O)O [aspirin]
- major cardiovascular events (ischaemic stroke, MI, or vascular death), average rate per year [1]: 6%
- reduction of incidence of non-fatal myocardial infarction, non-fatal stroke and vascular death ([1]; people with known vascular disease): about a quarter

Structure (SMILES): COC(=O)[C@H](c1ccccc1Cl)N1CCc2sccc2C1 [clopidogrel bisulfate]
- effect of administration with meals on bioavailability of clopidogrel (assessed by pharmacokinetics of the main circulating metabolite): did not significantly modify

Structure (SMILES): COC(=O)[C@H](c1ccccc1Cl)N1CCc2sccc2C1 [clopidogrel]
- Absorption (based on urinary excretion of clopidogrel-related metabolites): at least 50%
- elimination half-life of the active metabolite (in vivo): about eight hours
- time of peak plasma levels (in vivo): 30 to 60 min
- excreted in the feces [3]: approximately 46%
- excreted in the urine [3]: approximately 50%
- plasma concentrations of the parent compound (below the quantification limit) (repeated 75 mg oral doses, beyond two hours after dosing): < 0.258 ng/mL
- peak plasma levels of the main circulating metabolite [4]: approx. 3 mg/L
- time of peak plasma levels of the main circulating metabolite [4]: approximately one hour after dosing
- reversible binding in vitro to human plasma proteins (human plasma proteins): 98%
- RRR of major cardiovascular events versus aspirin ([1]; 95% CI 0.30% to 16.5%, P=0.04): 8.7%
- OR for cardiovascular events compared with aspirin ([1]; 95% CI 0.84 to 0.98): 0.91
- major cardiovascular events (ischaemic stroke, MI, or vascular death), average rate per year [1]: 5%
- greater risk for major adverse cardiovascular events in patients with CYP2C19 variants ([1]; patients with variants in cytochrome P-450 2C19): 3.58 fold
- incidence of gastrointestinal hemorrhage [2]: 2.0 % annually

Structure (SMILES): O=C(O)[C@H](c1ccccc1Cl)N1CCc2sccc2C1 [main circulating metabolite]
- reversible binding in vitro to human plasma proteins (human plasma proteins): 94%
